Like-named read-outs stand apart in the source and are kept apart here.
Target: T1, human mAChR M1 (Homo sapiens, UniProt P11229)
T1 sequence (P11229 1-460): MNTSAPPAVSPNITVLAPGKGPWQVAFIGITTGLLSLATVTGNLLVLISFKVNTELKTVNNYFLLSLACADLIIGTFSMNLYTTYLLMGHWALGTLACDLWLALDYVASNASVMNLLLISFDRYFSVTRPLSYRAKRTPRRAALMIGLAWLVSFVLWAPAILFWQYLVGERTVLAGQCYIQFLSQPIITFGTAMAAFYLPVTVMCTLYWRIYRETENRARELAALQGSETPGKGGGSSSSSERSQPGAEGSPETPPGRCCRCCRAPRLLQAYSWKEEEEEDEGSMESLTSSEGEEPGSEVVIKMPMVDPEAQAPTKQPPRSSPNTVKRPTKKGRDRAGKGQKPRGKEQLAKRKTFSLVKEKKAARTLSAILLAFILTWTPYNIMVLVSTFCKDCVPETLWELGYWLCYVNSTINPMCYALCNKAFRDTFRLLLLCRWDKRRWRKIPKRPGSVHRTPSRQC
Assay: mAChR M1 cell-based functional assay: calcium mobilization, positive allosteric modulator mode (increase in EC20 acetylcholine response)
Details: for Emax: read-out: Human M1 Emax (%)
Outline: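 PAM potency reflects the concentration-dependent increase in calcium response to an EC20 acetylcholine challenge, given 144 s into a 300 s read after compound addition at 4 s (EC80 follows at 230 s). Cells were hM1-expressing CHO-K1, loaded 50 min with Fluo-4 AM. Curves used 11 points at 1:3 dilutions and four-parameter logistic fitting.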

[1] = Table 2, human M1, read-out: Human M1 EC50
[2] = Table 1, mAChR M1 cell-based functional assay, PAM mode, species not given, read-out: EC50

Compound | EC50 [1] [nM] | Emax (Table 2, human M1) [%] | EC50 [2] [nM]
Cc1csc2c(Cc3ccc(-c4ccn(C)n4)cc3)cc(C(=O)NC3CC(F)(F)C3)nc12 [Compound 309, N-(3,3-difluorocyclobutyl)-3-methyl-7-[[4-(1-methylpyrazol-3-yl)phenyl]methyl]thieno[3,2-b]pyridine-5-carboxamide] | 4930 | 57.3 | 
Cc1ccc(Cc2cc(C(=O)NC3COC3)nc3ccsc23)cn1 [Compound 258, 7-[(6-methyl-3-pyridyl)methyl]-N-(oxetan-3-yl)thieno[3,2-b]pyridine-5-carboxamide] | > 10000 | 27.5 | 
Cn1cc(-c2ccc(Cc3cc(C(=O)N[C@H]4CCOC[C@@H]4O)nc4ccsc34)c(F)c2)cn1 [Compound 52, 7-[[2-fluoro-4-(1-methylpyrazol-4-yl)phenyl]methyl]-N-[(3R,4S)-3-hydroxytetrahydropyran-4-yl]thieno[3,2-b]pyridine-5-carboxamide] | 1960 | 76 | 
Cn1cc(-c2ccc(Oc3cc(C(=O)N[C@H]4COCC[C@@H]4O)nc4ccsc34)c(F)c2)cn1 [Compound 8] |  |  | 7790
N#CC1(NC(=O)c2cc(Cc3ccc(-n4cccn4)cc3)c3sccc3n2)CC1 [Compound 282, N-(1-cyanocyclopropyl)-7-[(4-pyrazol-1-ylphenyl)methyl]thieno[3,2-b]pyridine-5-carboxamide] | 601 | 40 | 
O=C(NCC1CCOC1)c1cc(Cc2ccc(-n3cccn3)cc2)c2sccc2n1 (stereo not drawn) [Compound 285, 7-[(4-pyrazol-1-ylphenyl)methyl]-N-(tetrahydrofuran-3-ylmethyl)thieno[3,2-b]pyridine-5-carboxamide] | 95.3 | 64.3 | 
Cc1csc2c(Cc3ccc(-c4ccn(C)n4)cc3)cc(C(=O)NC3COC3)nc12 [Compound 307, 3-methyl-7-[[4-(1-methylpyrazol-3-yl)phenyl]methyl]-N-(oxetan-3-yl)thieno[3,2-b]pyridine-5-carboxamide] | 3440 | 67.2 | 
O=C(NC1CCCCNC1=O)c1cc(Cc2ccc(-n3cccn3)cc2)c2sccc2n1 (stereo not drawn) [Compound 79, N-(2-oxoazepan-3-yl)-7-[(4-pyrazol-1-ylphenyl)methyl]thieno[3,2-b]pyridine-5-carboxamide] | 397 | 70.5 | 
Cn1cc(-c2ccc(Cc3cc(C(=O)NCC4CCOC4)nc4ccsc34)cn2)cn1 (stereo not drawn) [Compound 348, 7-[[6-(1-methylpyrazol-4-yl)-3-pyridyl]methyl]-N-(tetrahydrofuran-3-ylmethyl)thieno[3,2-b]pyridine-5-carboxamide] | 128 | 85.6 | 
Cc1ncc(Cc2cc(C(=O)NC34CC5CC(CC(O)(C5)C3)C4)nc3ccsc23)s1 [Compound 141, N-(3-hydroxy-1-adamantyl)-7-[(2-methylthiazol-5-yl]methyl]thieno[3,2-b]pyridine-5-carboxamide] | > 10000 | 36.9 | 
Cc1ccc(Cc2cc(C(=O)NC3CCCCNC3=O)nc3c(C)csc23)cn1 (stereo not drawn) [Compound 111, 3-methyl-7-[(6-methyl-3-pyridyl)methyl]-N-(2-oxoazepan-3-yl)thieno[3,2-b]pyridine-5-carboxamide] | 2400 | 72.5 | 
Cn1cc(-c2ccc(Cc3cc(C(=O)N[C@H]4CCCOC4)nc4ccsc34)cn2)cn1 [Compound 347, 7-[[6-(1-methylpyrazol-4-yl)-3-pyridyl]methyl]-N-[(3S)-tetrahydropyran-3-yl]thieno[3,2-b]pyridine-5-carboxamide] | 499 | 82.2 | 
Cn1ccc(-c2ccc(Cc3cc(C(=O)NC4CCOC(C)(C)C4)nc4ccn(C)c34)cn2)n1 (stereo not drawn) [Compound 504, N-(2,2-dimethyltetrahydropyran-4-yl)-1-methyl-7-[[6-(1-methylpyrazol-3-yl)-3-pyridyl]methyl]pyrrolo[3,2-b]pyridine-5-carboxamide;] | 1350 | 79.5 | 

Second part, the compound after the results:

EC50 [1] [nM] | Emax (Table 2, human M1) [%] | EC50 [2] [nM] | Compound
> 10000 | 54.9 |  | Cc1ncc(Cc2cc(C(=O)N[C@H]3CC[C@@H]3O)nc3ccsc23)s1 [Compound 132, N-[(1S,2S)-2-hydroxycyclobutyl]-7-[(2-methylthiazol-5-yl)methyl]thieno[3,2-b]pyridine-5-carboxamide]
11.8 | 70 |  | Cn1cc(-c2ccc(Cc3cc(C(=O)N[C@H]4CCOC[C@@H]4O)nc4ccn(C)c34)cn2)cn1 [Compound 468, N-[(3R,4S)-3-hydroxytetrahydropyran-4-yl]-1-methyl-7-[[6-(1-methylpyrazol-4-yl)-3-pyridyl]methyl]pyrrolo[3,2-b]pyridine-5-carboxamide]
 |  | 29 | Cc1ccc(Cc2cc(C(=O)N[C@H]3COCC[C@@H]3O)nc3ccsc23)cn1 [Compound 46, N-[(3S,4S)-4-hydroxytetrahydropyran-3-yl]-7-[(6-methyl-3-pyridyl)methyl]thieno[3,2-b]pyridine-5-carboxamide]
2340 | 82.2 |  | CN1CCCC(NC(=O)c2cc(Cc3ccc(-c4cscn4)cc3)c3sccc3n2)C1 (stereo not drawn) [Compound 210, N-(1-methyl-3-piperidyl)-7-[(4-thiazol-4-ylphenyl)methyl]thieno[3,2-b]pyridine-5-carboxamide]
297 | 71.8 |  | O=C(NC1CC(F)C1)c1cc(Cc2ccc(-n3cccn3)cc2)c2sccc2n1 (stereo not drawn) [Compound 280, N-(3-fluorocyclobutyl)-7-[(4-pyrazol-1-ylphenyl)methyl]thieno[3,2-b]pyridine-5-carboxamide]
56.2 | 63.4 |  | Cn1ccc(-c2ccc(Cc3cc(C(=O)N[C@@H]4COCC[C@H]4O)nc4ccsc34)cn2)n1 [Compound 410]
22 | 81.2 |  | O=C(N[C@H]1COCC[C@@H]1O)c1cc(Cc2ccc(-c3cscn3)cc2)c2sccc2n1 [Compound 216]
171 | 61.2 |  | Cn1ccc2nc(C(=O)N[C@H]3CC[C@@H]3O)cc(Cc3ccc(-c4nccs4)cc3)c21 [Compound 482, N-[(1S,2S)-2-hydroxycyclobutyl]-1-methyl-7-[(4-thiazol-2-ylphenyl)methyl]pyrrolo[3,2-b]pyridine-5-carboxamide]
428 | 67.3 |  | Cn1ncc2nc(C(=O)N[C@H]3CCCC[C@@H]3O)cc(Cc3ccc(-n4cccn4)cc3)c21 [Compound 498, N-[(1S,2S)-2-hydroxycyclohexyl]-1-methyl-7-[(4-pyrazol-1-ylphenyl)methyl]pyrazolo-[4,3-b]pyridine-5-carboxamide]
5.76 | 47 |  | Cn1ccc(-c2ccc(Cc3cc(C(=O)N[C@H]4CCOC[C@@H]4O)nc4ccsc34)cc2)n1 [Compound 255, N-[(3R,4S)-3-hydroxytetrahydropyran-4-yl]-7-[[4-(1-methylpyrazol-3-yl)phenyl]methyl]thieno[3,2-b]pyridine-5-carboxamide]
985 | 83.8 |  | Cc1csc2c(Cc3ccc(-n4cccn4)cc3)cc(C(=O)N[C@H]3CC[C@@H]3O)nc12 [Compound 113, N-[(1S,2S)-2-hydroxycyclobutyl]-3-methyl-7-[(4-pyrazol-1-ylphenyl)methyl]thieno[3,2-b]pyridine-5-carboxamide]
2970 | 61.2 |  | Cn1ccc2nc(C(=O)NC3COC3)cc(Cc3ccc(-c4cscn4)cc3)c21 [Compound 467, 1-methyl-N-(oxetan-3-yl)-7-[(4-thiazol-4-ylphenyl)methyl]pyrrolo[3,2-b]pyridine-5-carboxamide]

From US11111251B2, “Positive allosteric modulators of the muscarinic acetylcholine receptor M1” (Vanderbilt University, priority 2016, dated 2021)
